Consider 29 compounds from ChEMBL document CHEMBL4834415, “Distinct Lugdunins from a New Efficient Synthesis and Broad Exploitation of Its MRSA-Antimicrobial Structure” (2021).

Values after ≈ are worked out from the molar mass of the structure shown.

What is called MIC is the least concentration at which growth counts as inhibited.

For this test, the system named is Staphylococcus aureus. Nature of the test: Antibacterial activity against methicillin-resistant Staphylococcus aureus USA300 LAC assessed as reduction in bacterial growth incubated for 21 hrs by broth dilution method. The class given is functional. In general terms: Broth dilution looks for growth in wells or tubes with falling amounts of substance.
Take `CC(C)C[C@H]1NC(=O)[C@@H]2Cc3ccccc3CN2C(=O)[C@@H](C(C)C)NC(=O)[C@@H]2CSC(N2)[C@H](C(C)C)NC(=O)[C@@H](C(C)C)NC(=O)[C@H](C(C)C)NC1=O`: the MIC is 132 µM (≈ 100 µg/mL).
With `CC(C)C[C@H]1NC(=O)[C@H](Cc2c[nH]c3ccccc23)NC(=O)[C@@H](C(C)C)NC(=O)[C@@H]2CSC(N2)[C@H](C(C)C)NC(=O)[C@@H](Cc2c[nH]c3ccccc23)NC(=O)[C@H](C(C)C)NC1=O` the figure was 1.8 µM (≈ 1.57 µg/mL); with `CC(C)C[C@H]1NC(=O)[C@H](Cc2ccc(-c3ccccc3)cc2)NC(=O)[C@@H](C(C)C)NC(=O)[C@@H]2CSC(N2)[C@H](C(C)C)NC(=O)[C@@H](C(C)C)NC(=O)[C@H](C(C)C)NC1=O`, 30.5 µM (≈ 25 µg/mL).
As to `CC(C)C[C@H]1NC(=O)[C@H](Cc2cccc([N+](=O)[O-])c2)NC(=O)[C@@H](C(C)C)NC(=O)[C@@H]2CSC(N2)[C@H](C(C)C)NC(=O)[C@@H](C(C)C)NC(=O)[C@H](C(C)C)NC1=O`, the MIC stood at 127 µM (≈ 100 µg/mL).
Regarding `CCC[C@H]1NC(=O)[C@@H]2CSC(N2)[C@H](C(C)C)NC(=O)[C@@H](Cc2c[nH]c3ccccc23)NC(=O)[C@H](C(C)C)NC(=O)[C@@H](CC(C)C)NC(=O)[C@H](Cc2c[nH]c3ccccc23)NC1=O`, the MIC was determined as 7.2 µM (≈ 6.26 µg/mL).
`CC(C)C[C@H]1NC(=O)[C@H](c2ccccc2)NC(=O)[C@@H](C(C)C)NC(=O)[C@@H]2CSC(N2)[C@H](C(C)C)NC(=O)[C@@H](C(C)C)NC(=O)[C@H](C(C)C)NC1=O`: the MIC is 137 µM (≈ 100 µg/mL).
For `CC(C)C[C@H]1NC(=O)[C@H](Cc2c[nH]c3ccccc23)NC(=O)[C@@H](Cc2ccccc2)NC(=O)[C@@H]2CSC(N2)[C@H](C(C)C)NC(=O)[C@@H](C(C)C)NC(=O)[C@H](C(C)C)NC1=O`, the MIC came out at 120 µM (≈ 100 µg/mL).
With `CC[C@H](C)[C@H]1NC(=O)[C@@H]2CSC(N2)[C@H](C(C)C)NC(=O)[C@@H](C(C)C)NC(=O)[C@H](C(C)C)NC(=O)[C@@H](CC(C)C)NC(=O)[C@H](Cc2c[nH]c3ccccc23)NC1=O` the figure was 7.9 µM (≈ 6.3 µg/mL); with `CC(C)C[C@H]1NC(=O)[C@H](Cc2cn(C)c3ccccc23)NC(=O)[C@@H](C(C)C)NC(=O)[C@@H]2CSC(N2)[C@H](C(C)C)NC(=O)[C@@H](C(C)C)NC(=O)[C@H](C(C)C)NC1=O`, 15.7 µM (≈ 12.5 µg/mL); with `CC[C@H](C)[C@H]1NC(=O)[C@@H]2CSC(N2)[C@H](C(C)C)NC(=O)[C@@H](Cc2c[nH]c3ccccc23)NC(=O)[C@H](C(C)C)NC(=O)[C@@H](CC(C)C)NC(=O)[C@H](Cc2c3ccccc3cc3ccccc23)NC1=O`, 106 µM (≈ 100 µg/mL).
`C=CC[C@H]1NC(=O)[C@@H]2CSC(N2)[C@H](C(C)C)NC(=O)[C@@H](Cc2c[nH]c3ccccc23)NC(=O)[C@H](C(C)C)NC(=O)[C@@H](CC(C)C)NC(=O)[C@H](Cc2c[nH]c3ccccc23)NC1=O`: the minimum inhibitory concentration (MIC) was 14.4 µM (≈ 12.5 µg/mL).
In the case of `CC(C)C[C@@H]1NC(=O)[C@@H](C(C)C)NC(=O)[C@H](C(C)C)NC(=O)[C@@H](C(C)C)NC(=O)[C@@H]2CSC(N2)[C@H](C(C)C)NC(=O)[C@@H](Cc2c[nH]c3ccccc23)NC1=O`, the MIC was determined as 8 µM (≈ 6.26 µg/mL).
For `CSCC[C@H]1NC(=O)[C@H](Cc2c[nH]c3ccccc23)NC(=O)[C@@H](C(C)C)NC(=O)[C@@H]2CSC(N2)[C@H](C(C)C)NC(=O)[C@@H](Cc2c[nH]c3ccccc23)NC(=O)[C@H](C(C)C)NC1=O`, the MIC came out at 113 µM (≈ 100 µg/mL).
Turning to `CC(C)C[C@H]1NC(=O)[C@H](Cc2ccc(O)c(O)c2)NC(=O)[C@@H](C(C)C)NC(=O)[C@@H]2CSC(N2)[C@H](C(C)C)NC(=O)[C@@H](C(C)C)NC(=O)[C@H](C(C)C)NC1=O`, the MIC amounted to 130 µM (≈ 101 µg/mL).
For `CC(C)[C@@H]1NC(=O)[C@@H](Cc2c[nH]c3ccccc23)NC(=O)[C@H](C(C)C)NC(=O)C2(CC2)NC(=O)[C@H](Cc2c[nH]c3ccccc23)NC(=O)[C@@H](C(C)C)NC(=O)[C@@H]2CSC1N2`, the minimal inhibitory concentration (MIC) came out at 119 µM (≈ 100 µg/mL).
On to `CCC[C@H]1NC(=O)[C@@H]2CSC(N2)[C@H](C(C)C)NC(=O)[C@@H](C(C)C)NC(=O)[C@H](C(C)C)NC(=O)[C@@H](CC(C)C)NC(=O)[C@H](Cc2c[nH]c3ccccc23)NC1=O`, for which the MIC worked out at 16 µM (≈ 12.5 µg/mL).
For the compound `CC(C)[C@@H]1NC(=O)[C@@H](Cc2c[nH]c3ccccc23)NC(=O)[C@H](C(C)C)NC(=O)[C@@H](C(C)(C)C)NC(=O)[C@H](Cc2c[nH]c3ccccc23)NC(=O)[C@@H](C(C)C)NC(=O)[C@@H]2CSC1N2`, the MIC was determined as 28.8 µM (≈ 25.1 µg/mL).
As to `CC(C)C[C@H]1NC(=O)[C@H](Cc2c(F)c(F)c(F)c(F)c2F)NC(=O)[C@@H](C(C)C)NC(=O)[C@@H]2CSC(N2)[C@H](C(C)C)NC(=O)[C@@H](C(C)C)NC(=O)[C@H](C(C)C)NC1=O`, the MIC was 30 µM (≈ 25 µg/mL).
As for `CC(C)C[C@H]1NC(=O)[C@H](Cc2c[nH]c3ccccc23)NC(=O)[C@@H](C(C)(C)C)NC(=O)[C@@H]2CSC(N2)[C@H](C(C)C)NC(=O)[C@@H](C(C)C)NC(=O)[C@H](C(C)C)NC1=O`, the MIC came to 31.4 µM (≈ 25 µg/mL).
Take `CC(C)[C@@H]1NC(=O)[C@@H](Cc2c[nH]c3ccccc23)NC(=O)[C@H](C(C)C)NC(=O)[C@@H](Cc2c[nH]c3ccccc23)NC(=O)[C@H](Cc2c[nH]c3ccccc23)NC(=O)[C@@H](C(C)C)NC(=O)[C@@H]2CSC1N2`: the MIC turned out to be 106 µM (≈ 100 µg/mL).
On to `CC(C)C[C@H]1NC(=O)[C@H](Cc2csc3ccccc23)NC(=O)[C@@H](C(C)C)NC(=O)[C@@H]2CSC(N2)[C@H](C(C)C)NC(=O)[C@@H](C(C)C)NC(=O)[C@H](C(C)C)NC1=O`, for which the MIC is 15.6 µM (≈ 12.5 µg/mL).
With `C=CC[C@H]1NC(=O)[C@H](Cc2c[nH]c3ccccc23)NC(=O)[C@@H](C(C)C)NC(=O)[C@@H]2CSC(N2)[C@H](C(C)C)NC(=O)[C@@H](Cc2c[nH]c3ccccc23)NC(=O)[C@H](C(C)C)NC1=O`, the MIC was 58.6 µM (≈ 50 µg/mL).
With `CC(C)C[C@H]1NC(=O)[C@H](Cc2cscn2)NC(=O)[C@@H](C(C)C)NC(=O)[C@@H]2CSC(N2)[C@H](C(C)C)NC(=O)[C@@H](C(C)C)NC(=O)[C@H](C(C)C)NC1=O`, the minimum inhibitory concentration (MIC) worked out at 133 µM (≈ 100 µg/mL).
For the compound `CC(C)C[C@H]1NC(=O)[C@@H]2CSC(N2)[C@H](C(C)C)NC(=O)[C@@H](C(C)C)NC(=O)[C@H](C(C)C)NC(=O)[C@@H](C(C)C)NC(=O)[C@H](Cc2c[nH]c3ccccc23)NC1=O`, the minimal inhibitory concentration (MIC) amounted to 128 µM (≈ 100 µg/mL).
Consider `CSCC[C@H]1NC(=O)[C@@H]2CSC(N2)[C@H](C(C)C)NC(=O)[C@@H](Cc2c[nH]c3ccccc23)NC(=O)[C@H](C(C)C)NC(=O)[C@@H](CC(C)C)NC(=O)[C@H](Cc2c[nH]c3ccccc23)NC1=O`, for which the MIC was 111 µM (≈ 100 µg/mL).
`CC(C)C[C@H]1NC(=O)[C@@H]2CSC(N2)[C@H](C(C)C)NC(=O)[C@@H](Cc2c[nH]c3ccccc23)NC(=O)[C@H](C(C)C)NC(=O)[C@@H](CC(C)C)NC(=O)[C@H](Cc2c[nH]c3ccccc23)NC1=O`: the minimal inhibitory concentration (MIC) is 113 µM (≈ 99.9 µg/mL).
For `CC(C)C[C@H]1NC(=O)[C@H](Cc2c[nH]c3ccccc23)NC(=O)[C@@H](Cc2c[nH]c3ccccc23)NC(=O)[C@@H]2CSC(N2)[C@H](C(C)C)NC(=O)[C@@H](C(C)C)NC(=O)[C@H](C(C)C)NC1=O`, the MIC was 28.8 µM (≈ 25.1 µg/mL).
As for `CC(C)C[C@H]1NC(=O)[C@H](Cc2ccncc2)NC(=O)[C@@H](C(C)C)NC(=O)[C@@H]2CSC(N2)[C@H](C(C)C)NC(=O)[C@@H](C(C)C)NC(=O)[C@H](C(C)C)NC1=O`, the MIC came out at 134 µM (≈ 100 µg/mL).
For `CC(C)C[C@H]1NC(=O)[C@H](Cc2ccc(C(=O)c3ccccc3)cc2)NC(=O)[C@@H](C(C)C)NC(=O)[C@@H]2CSC(N2)[C@H](C(C)C)NC(=O)[C@@H](C(C)C)NC(=O)[C@H](C(C)C)NC1=O`, the MIC is 59 µM (≈ 50 µg/mL).
